Read-outs that look alike come from different tables or passages of the source. Some results are limits rather than exact numbers.

Experimental findings from patent US7135466B2 (Kirin Beer Kabushiki Kaisha, priority 1999, dated 2006) are described below.

One experiment deals with T1, c-kit (Homo sapiens, UniProt P10721).
T1 construct: MO7e (human megakaryocytic leukemia cell line) which had been arrested for 20 hr; endogenous in cells; host or cells: MO7e human megakaryocytic leukemia cell line
The experiment can be described thus: Inhibitory activity against c-kit autophosphorylation (MO7e cells, h-SCF). Format: cell-based. To be noted: for IC50: MO7e cells, read-out: c-kit IC50; for inhibition at 1 µM: Mo7e, figure within parentheses in −( ) or >1000( ), at 1000 nM. Put shortly: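 MO7e cells, arrested for 20 hr, were pretreated with test compound in DMSO for 1 hr and then stimulated with 50 ng/ml h-SCF for 5 min before lysis. Lysates were captured on immobilized anti-phosphotyrosine PY-20, probed with anti-c-kit antibody and HRP anti-rabbit IgG, and read colorimetrically at 450 nm.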

Experiment [1] relates to neointima of balloon-injured left carotid artery. The experiment can be described thus: Rat carotid balloon injury model. Format: in vivo. The settings on record: po, 336 h, read-out: I/M ratio, inhibition (%). The procedure: Rat Carotid Balloon Injury Model
Wistar male rats ([…]) were anesthetized with pentobarbital anesthesia, the right femoral region was incised from the rats, a Fogaty 2F catheter was inserted through the right femoral artery and was led to the left carotid artery, and abrasion was made three times with an expansion diameter of 2.5 mm.
The test compound was suspended in 1% cremophore, and the suspension was orally administered at 0.4 ml/100 g B.W. twice a day through an oral probe for rats for 2 weeks from the day before an operation. On the second week after the operation, the rats were sacrificed by ether. The left carotid artery was removed and was fixed in buffered formalin. Sliced preparations embedded in paraffin were stained with HE and were subjected to image analysis for the measurement of the neointima area (I) and media area (M) in the section of injured blood vessal. I/M was calculated as an index for the evaluation of drug efficacy.

A further experiment concerns the target T2, human KDR (Homo sapiens, UniProt P35968).
T2 construct: expressed in transfected cells; host or cells: NIH 3T3 cells
The experiment can be described thus: Inhibitory activity against KDR phosphorylation (NIH 3T3 cells transfected with human KDR, VEGF). Format: cell-based. To be noted: VEGF 100 ng/ml. The procedure: Measurement of Inhibitory Activity Against KDR Phosphorylation
NIH 3T3 cells (Sawano A et al., Cell Growth & Differentiation, 7, 213–221 (1996)) prepared by transfection of human KDR were cultured in a DMEM medium containing 10% FBS (GIBCO BRL) within a 5% carbon dioxide incubator until 50 to 70% confluent. The harvested cells were inoculated into wells of a collagen-type one-coat 96-well flat-bottom plate, each containing the same medium, in an amount of 1.5×10^4 per well, followed by cultivation at 37° C. overnight. The medium was then replaced by a DMEM medium containing 0.1% FBS. A solution of a test compound in dimethyl sulfoxide was added to each well, and the cultivation was carried out at 37° C. for additional one hr. A human recombinant vascular endothelial growth factor (hereinafter abbreviated to “VEGF”) was added to a concentration of 100 ng/ml, and the stimulation of cells was carried out at 37° C. for 2 min. The medium was removed, the cells were washed with phosphate buffered saline (pH 7.4), and 50 μl of a solubilization buffer (20 mM HEPES (pH 7.4), 150 mM NaCl, 0.2% Triton X-100, 10% glycerol, 5 mM sodium orthovanadylate, 5 mM disodium ethylenediaminetetraacetate, and 2 mM Na4P2O7) was then added thereto. The mixture was shaken at 4° C. for 2 hr to prepare a cell extract.
An anti-phospho-tyrosine antibody (PY20; Transduction Laboratories) was immobilized on a microplate for ELISA (Maxisorp; NUNC), and the whole quantity of the cell extract was transferred to the wells, and the immobilized antibody was reacted with the phosphorylated protein at 4° C. overnight. After washing, an anti-KDR antibody (Santa Cruz) was allowed to react at room temperature for one hr, and, further, after washing, a peroxidase-labeled anti-rabbit Ig antibody (Amersham) was allowed to react at room temperature for one hr. After washing, a chromophoric substrate for peroxidase (Sumitomo Bakelite Co., Ltd.) was added thereto and was allowed to react at room temperature. After a suitable level of color development, a reaction termination solution was added to stop the reaction, and the absorbance at 450 nm was measured with a microplate reader. The KDR phosphorylation activity for each well was determined by presuming the absorbance with the addition of VEGF and without the addition of the medicament to be 100% KDR phosphorylation activity and the absorbance without the medicament and VEGF to be 0% KDR phosphorylation activity.
The concentration of the test compound was varied on several levels, the inhibition (%) of KDR phosphorylation was determined for each case, and the concentration of the test compound necessary for inhibiting 50% of KDR phosphorylation (IC50) was calculated.

The next experiment deals with T3, PDGF-Ra (Homo sapiens, UniProt P16234).
T3 construct: host or cells: G-292 human osteosarcoma cells
The experiment can be described thus: Inhibitory activity against PDGF-Ra phosphorylation by PDGF-AA stimulation using G292. To be noted: > means inhibition at indicated concentration not more than 50%, < and << not less than 50%, read-out: PDGF (E) IC50. Format: cell-based. Put shortly:
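Phospho-PDGF-Ra ELISA: capture with PY-20 antiphosphotyrosine, detection with anti-PDGF-Ra and peroxidase secondary, read at 450 nm. Lysates came from G-292 osteosarcoma cells starved in 0.1% FBS, compound-treated 1 hr at 37° C, and stimulated with 50 ng/ml PDGF-AA for 5 min.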

The test system of experiment [2] is intima of balloon-injured coronary vessel. The experiment can be described thus: Porcine coronary balloon injury model. To be noted: 10 mg/kg orally twice a day for 28 days, gelatin capsule, shoats. Format: in vivo. The procedure:
Porcine Coronary Balloon Injury Model Edible shoats (24 to 31 kg) were anesthetized with telazol and xylazine, a balloon catheter was inserted through the femoral artery, and the descending branch in front of the heart on the left and the right rotator branch were injured under vasographing. For 28 days from the operation, the compound of Example 679 was orally administered as a gelatin capsule at a dose of 10 mg/kg twice a day. Further, only a gelatin capsule was administered as a control. In the test, each group consisted of 6 shoats. On the 28th day from the operation, the shoats were sacrificed with pentobarbital and were perfused with buffered formalin, and the heart was then removed. Paraffin embedded preparations of the injured blood vessel portion were sliced and stained with HE, followed by image analysis to measure the intima area (IA), media area (MA), and vessel area (VA), and the fissure length (FL) and vessel perimeter (VP) of the inner elastic plate. IA/MA and (IA/VA)/(FL/VP) were calculated as an index for the evaluation of drug efficacy.

Setting [3] is: in vivo, dose: 30 mg/kg, orally twice a day for 2 weeks, Wistar male rats.
The mark [4] stands for this setting: in vivo, orally twice a day for 2 weeks, Wistar male rats.

T2 sequence (P35968 20-1356): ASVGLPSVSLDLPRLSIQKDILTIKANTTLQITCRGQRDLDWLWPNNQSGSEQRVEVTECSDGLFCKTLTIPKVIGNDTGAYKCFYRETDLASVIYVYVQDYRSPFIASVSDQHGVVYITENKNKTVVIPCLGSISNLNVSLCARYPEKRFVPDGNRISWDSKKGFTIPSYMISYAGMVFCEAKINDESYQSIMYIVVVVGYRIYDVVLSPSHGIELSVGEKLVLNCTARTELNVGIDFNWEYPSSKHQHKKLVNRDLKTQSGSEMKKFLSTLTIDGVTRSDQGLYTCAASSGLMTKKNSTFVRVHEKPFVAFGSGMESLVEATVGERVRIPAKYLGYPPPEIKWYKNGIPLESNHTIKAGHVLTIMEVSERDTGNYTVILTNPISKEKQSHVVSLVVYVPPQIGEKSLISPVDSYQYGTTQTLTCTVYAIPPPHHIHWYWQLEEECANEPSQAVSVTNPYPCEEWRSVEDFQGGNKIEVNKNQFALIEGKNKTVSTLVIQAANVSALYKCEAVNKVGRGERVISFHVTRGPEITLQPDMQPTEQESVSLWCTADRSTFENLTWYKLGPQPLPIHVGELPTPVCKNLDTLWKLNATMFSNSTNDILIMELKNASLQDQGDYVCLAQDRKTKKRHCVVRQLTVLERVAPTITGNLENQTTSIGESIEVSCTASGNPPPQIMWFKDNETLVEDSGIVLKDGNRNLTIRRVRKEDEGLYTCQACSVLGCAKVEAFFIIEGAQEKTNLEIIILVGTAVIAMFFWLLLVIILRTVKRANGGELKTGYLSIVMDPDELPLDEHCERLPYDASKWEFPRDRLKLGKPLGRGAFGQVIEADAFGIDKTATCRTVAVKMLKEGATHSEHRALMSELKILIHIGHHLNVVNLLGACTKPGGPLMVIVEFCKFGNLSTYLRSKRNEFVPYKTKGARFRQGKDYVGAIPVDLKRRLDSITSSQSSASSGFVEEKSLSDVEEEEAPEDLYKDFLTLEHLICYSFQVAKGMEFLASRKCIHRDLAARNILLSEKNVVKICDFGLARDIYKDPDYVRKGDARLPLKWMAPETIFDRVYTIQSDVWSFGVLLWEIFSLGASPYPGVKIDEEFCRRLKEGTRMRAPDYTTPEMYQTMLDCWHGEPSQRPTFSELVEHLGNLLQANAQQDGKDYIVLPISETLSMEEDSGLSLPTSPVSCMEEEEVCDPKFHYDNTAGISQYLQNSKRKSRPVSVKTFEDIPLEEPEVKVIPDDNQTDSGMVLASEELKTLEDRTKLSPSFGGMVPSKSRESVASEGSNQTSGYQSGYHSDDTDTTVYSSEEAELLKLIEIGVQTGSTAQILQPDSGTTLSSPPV
T3 sequence (P16234 24-1089): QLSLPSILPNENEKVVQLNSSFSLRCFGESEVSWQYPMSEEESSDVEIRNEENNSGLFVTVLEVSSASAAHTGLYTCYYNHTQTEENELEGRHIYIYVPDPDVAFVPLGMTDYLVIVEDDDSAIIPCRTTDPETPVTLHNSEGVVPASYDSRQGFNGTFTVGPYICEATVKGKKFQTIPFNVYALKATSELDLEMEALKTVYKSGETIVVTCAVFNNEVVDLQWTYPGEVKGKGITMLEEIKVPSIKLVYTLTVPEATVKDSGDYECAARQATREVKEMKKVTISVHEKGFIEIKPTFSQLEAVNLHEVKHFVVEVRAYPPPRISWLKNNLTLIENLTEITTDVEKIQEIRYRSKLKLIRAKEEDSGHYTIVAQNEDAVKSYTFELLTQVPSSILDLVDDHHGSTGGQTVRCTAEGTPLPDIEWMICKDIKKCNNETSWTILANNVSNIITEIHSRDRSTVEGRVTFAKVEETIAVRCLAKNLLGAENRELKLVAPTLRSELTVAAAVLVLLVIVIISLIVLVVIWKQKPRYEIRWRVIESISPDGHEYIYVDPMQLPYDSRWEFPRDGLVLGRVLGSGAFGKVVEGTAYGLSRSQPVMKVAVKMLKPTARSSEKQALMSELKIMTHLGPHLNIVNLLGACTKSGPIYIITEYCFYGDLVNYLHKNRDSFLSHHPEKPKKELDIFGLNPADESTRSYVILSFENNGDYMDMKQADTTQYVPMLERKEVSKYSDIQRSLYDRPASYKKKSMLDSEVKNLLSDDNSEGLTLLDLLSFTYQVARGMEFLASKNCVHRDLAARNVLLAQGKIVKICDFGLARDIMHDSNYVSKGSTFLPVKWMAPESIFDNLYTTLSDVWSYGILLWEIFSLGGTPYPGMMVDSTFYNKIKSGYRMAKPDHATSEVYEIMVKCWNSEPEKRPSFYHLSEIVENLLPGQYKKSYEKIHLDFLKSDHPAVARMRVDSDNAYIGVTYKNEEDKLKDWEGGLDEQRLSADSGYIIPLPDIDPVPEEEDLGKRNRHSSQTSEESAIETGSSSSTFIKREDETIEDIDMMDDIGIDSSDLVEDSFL
T1 sequence (P10721 26-976): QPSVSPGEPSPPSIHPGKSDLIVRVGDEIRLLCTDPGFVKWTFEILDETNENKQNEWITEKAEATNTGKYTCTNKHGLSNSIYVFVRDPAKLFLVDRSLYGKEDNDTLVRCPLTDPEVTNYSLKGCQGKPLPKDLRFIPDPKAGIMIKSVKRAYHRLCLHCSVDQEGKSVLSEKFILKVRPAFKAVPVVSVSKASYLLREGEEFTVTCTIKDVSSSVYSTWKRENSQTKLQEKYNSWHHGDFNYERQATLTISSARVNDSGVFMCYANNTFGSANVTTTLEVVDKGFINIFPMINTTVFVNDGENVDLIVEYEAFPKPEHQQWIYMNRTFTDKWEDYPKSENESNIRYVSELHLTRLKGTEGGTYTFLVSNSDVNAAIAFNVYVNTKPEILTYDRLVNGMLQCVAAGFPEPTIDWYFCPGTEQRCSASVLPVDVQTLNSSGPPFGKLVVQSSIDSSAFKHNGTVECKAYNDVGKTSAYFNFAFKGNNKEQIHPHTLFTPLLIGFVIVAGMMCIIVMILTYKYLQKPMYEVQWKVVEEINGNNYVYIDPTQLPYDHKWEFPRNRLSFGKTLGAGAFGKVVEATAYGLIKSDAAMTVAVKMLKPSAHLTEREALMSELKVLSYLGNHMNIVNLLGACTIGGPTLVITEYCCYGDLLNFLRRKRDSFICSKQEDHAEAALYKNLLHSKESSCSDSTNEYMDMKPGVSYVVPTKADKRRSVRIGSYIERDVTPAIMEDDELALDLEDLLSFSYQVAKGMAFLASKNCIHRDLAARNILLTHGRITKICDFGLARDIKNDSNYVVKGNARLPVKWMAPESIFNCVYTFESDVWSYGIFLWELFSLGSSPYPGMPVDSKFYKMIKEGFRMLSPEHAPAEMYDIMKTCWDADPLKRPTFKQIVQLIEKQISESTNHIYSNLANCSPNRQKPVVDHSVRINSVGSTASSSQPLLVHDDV

Turning to `COc1cc2nccc(Oc3ccc(NC(=O)Oc4ccccc4C)cc3)c2cc1OC` [Example 223, 2-Methylphenyl N-{4-[(6,7-dimethoxy-4-quinolyl)oxy]phenyl}carbamate], the half-inhibitory concentration (IC50) (as a rule, the midpoint of a concentration-inhibition curve) at c-kit (h-SCF 50 ng/ml) turned out to be 101 nM; at human KDR it was 38 nM. Besides, the inhibition in vivo at 30 mg/kg in experiment [1] came out at 41%.
For the molecule `COc1cc2nccc(Oc3cc(C)c(NC(=O)OC4CCCCCC4)cc3C)c2cc1OC` [Example 287, Cycloheptyl N-{4-[(6,7-dimethoxy-4-quinolyl)oxy]-2,5-dimethylphenyl}carbamate], the IC50 at PDGF-Ra (Pharmacological Test Example 1) was 13 nM; at c-kit (h-SCF 50 ng/ml), 228 nM; on human KDR, above 1000 nM. In experiment [1] (setting [3]), the inhibition in vivo at 30 mg/kg stood at 37%.
Regarding `C#CCC(CC)OC(=O)Nc1ccc(Oc2ccnc3cc(OC)c(OC)cc23)cc1` (centres unmarked) [Example 408, 1-Ethyl-3-butynyl N-{4-[(6,7-dimethoxy-4-quinolyl)oxy]phenyl}carbamate], the IC50 at PDGF-Ra was below 10 nM; at c-kit (50 ng/ml h-SCF), 192 nM; on human KDR it was 108 nM. Also, the inhibition in vivo at 30 mg/kg in experiment [1] (setting [3]) came out at 50%.
For the molecule `COc1cc2nccc(Oc3ccc(NC(=O)OCCCN4CCOCC4)cc3)c2cc1OC` [Example 421, 3-Morpholinopropyl N-{4-[(6,7-dimethoxy-4-quinolyl)oxy]phenyl}carbamate], the IC50 at PDGF-Ra is below 10 nM; on c-kit (50 ng/ml h-SCF), 34 nM; at human KDR it was 692 nM. Also, the inhibition in vivo at 30 mg/kg in experiment [1] (setting [3]) turned out to be 42%.
Turning to `CCN(CC)CCNC(=S)Nc1ccc(Oc2ncnc3cc(OC)c(OC)cc23)cc1` [Example 516, N-{4-[(6,7-Dimethoxy-4-quinazolinyl)oxy]phenyl}-N′-(2-diethylaminoethyl)thiourea], the results for the IC50 at PDGF-Ra and at human KDR were 50 nM and above 1000 nM, respectively. For the same molecule, at c-kit, the inhibition (in general, the drop in the measured response relative to a control, in per cent) at 1 µM was determined as 27%. Besides, the inhibition in vivo at 30 mg/kg in experiment [1] (setting [3]) stood at 32%.
On to `COc1cc2ncnc(Oc3ccc(NC(=O)N[C@H]4CCN(Cc5ccccc5)C4)cc3)c2cc1OC` [Example 567, N-[(3S)-1-Benzyltetrahydro-1H-3-pyrrolyl]-N′-{4-[(6,7-dimethoxy-4-quinazolinyl)oxy]phenyl}urea], for which the half-maximal inhibitory concentration (IC50) on PDGF-Ra is 21 nM; on c-kit (50 ng/ml h-SCF), 118 nM; on human KDR, above 1000 nM. Besides, the inhibition in vivo at 10 mg/kg in experiment [1] (setting [4]) is 24%.
Regarding `COc1cc2nccc(Oc3ccc(NC(=O)NC4CCN(Cc5ccccc5)CC4)cc3)c2cc1OC` [Example 590, N-{4-[(6,7-Dimethoxy-4-quinolyl)oxy]phenyl}-N′-[4-(N-benzyl)piperidinyl]urea], the figures for the half-inhibitory concentration (IC50) on PDGF-Ra, on c-kit (50 ng/ml h-SCF) and at human KDR were 54 nM, 296 nM and above 1000 nM, respectively. For the same molecule, in experiment [1] (setting [3]), the inhibition in vivo at 30 mg/kg stood at 86%.
The matching figures for `COc1cc2nccc(Oc3ccc(NC(=S)NC(=O)c4ccccc4C)cc3)c2cc1OC` [Example 614, N-{4-[(6,7-Dimethoxy-4-quinolyl)oxy]-phenyl}-N′-(2-methylbenzoyl)thiourea]: below 10 nM, 434 nM, 47 nM and 92%.
Taken in the same sequence, the figures for `COc1cc2nccc(Oc3ccc(NC(=S)NC(=O)Cc4ccccc4)cc3F)c2cc1OC` [Example 615, N-{4-[(6,7-Dimethoxy-4-quinolyl)oxy]-3-fluorophenyl}-N′-(2-phenylacetyl)thiourea] were 17 nM, 125 nM, 37 nM and 43%.
As for `CCN(CC)CCNC(=O)Nc1ccc(Oc2ccnc3cc(OC)c(OC)cc23)cc1` [Example 622, N-[2-(Diethylamino)ethyl]-N′-{4-[(6,7-dimethoxy-4-quinolyl)oxy]phenyl}urea], the IC50 at PDGF-Ra is 11 nM; on c-kit (50 ng/ml h-SCF), 355 nM; against human KDR it was above 1000 nM. Also, in experiment [1] (setting [3]), the inhibition in vivo at 30 mg/kg came out at 38%.
`CCN(CC)CCNC(=O)Nc1ccc(Oc2ncnc3cc(OC)c(OC)cc23)cc1[N+](=O)[O-]` [Example 647, N-[2-(Diethylamino)ethyl]-N′-{4-[(6,7-dimethoxy-4-quinazolinyl)oxy]-2-nitrophenyl}urea]: the IC50 on PDGF-Ra came out at 13 nM; at c-kit (50 ng/ml h-SCF), 712 nM; on human KDR, 599 nM. Besides, the inhibition in vivo at 10 mg/kg in experiment [1] (setting [4]) came out at 32%.
On to `COc1cc2ncnc(Oc3ccc(NC(=O)NCCN4CCCCC4)c([N+](=O)[O-])c3)c2cc1OC` [Example 679, N-{4-[(6,7-Dimethoxy-4-quinazolinyl)oxy]-2-nitrophenyl}-N′-(2-piperidinoethyl)urea], for which the IC50 on PDGF-Ra was below 10 nM; at c-kit (50 ng/ml h-SCF) it was 337 nM; against human KDR, 323 nM. In experiment [1] (setting [4]), the inhibition in vivo at 10 mg/kg was found to be 54%. Further, in experiment [2], the “(IA/VA)/(FL/VP) inhibition (%)” value is 47 (p < 0.001) %. In addition, the “IA/MA inhibition (%)” value in experiment [2] is reported as 36 (p < 0.05) %.
For the molecule `CCCCN(CCCC)CCNC(=O)Nc1ccc(Oc2ncnc3cc(OC)c(OC)cc23)cc1[N+](=O)[O-]` [Example 687, N-[2-(Dibutylamino)ethyl]-N′-{4-[(6,7-dimethoxy-4-quinazolinyl)oxy]-2-nitrophenyl}urea], the values for the IC50 on PDGF-Ra and at human KDR were 26 nM and 176 nM, respectively. Also, at c-kit, the inhibition at 1 µM was determined as 34%. Further, the inhibition in vivo at 10 mg/kg in experiment [1] (setting [4]) is 17%.
